These are literature values, as cited in patent US6911441B2, “Prolonged release pharmaceutical composition” (Akzo Nobel N.V., priority 2002, dated 2005).

In brackets after ≈: the same amount, converted by molar mass.

This data set relates to Mannheimia haemolytica.

By MIC90 is commonly meant the lowest concentration that inhibits either 90% of growth or 90% of the strains tested, depending on the study. As for `CO/N=C(\C(=O)N[C@@H]1C(=O)N2C(C(=O)[O-])=C(C[n+]3cccc4c3CCCC4)CS[C@H]12)c1csc(N)n1` [Cefquinome], the MIC90 is 0.25 µg/mL (≈ 0.473 µM).
